According to patent EP1247803A2, “Indolinone compounds suitable for modulation of protein kinases” (Sugen, Inc., priority 1996, dated 1998):

Tests used:
MET = MET biochemical kinase assay; design: species or system human; concentration or dose not given beside the values
Outline: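 Lysate-derived MET, or chimeric receptors, is immobilised on plates through an antibody to the human MET cytoplasmic region. Compounds are added along with kinase buffer supplying ATP and divalent metal ions, and receptor autophosphorylation is quantified by anti-phosphotyrosine ELISA.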

FLK-1 receptor = target: T1, FLK-1 receptor (Mus musculus, UniProt P35918); test: FLK-1 ELISA (kinase activity of the FLK-1 receptor in FLK-1/NIH3T3 cells, VEGF stimulated); type: cell-based; design: concentration or dose not given beside the values
T1 construct: expressed in transfected cells; host or cells: NIH3T3 C7#3
T1 sequence (P35918 20-1345): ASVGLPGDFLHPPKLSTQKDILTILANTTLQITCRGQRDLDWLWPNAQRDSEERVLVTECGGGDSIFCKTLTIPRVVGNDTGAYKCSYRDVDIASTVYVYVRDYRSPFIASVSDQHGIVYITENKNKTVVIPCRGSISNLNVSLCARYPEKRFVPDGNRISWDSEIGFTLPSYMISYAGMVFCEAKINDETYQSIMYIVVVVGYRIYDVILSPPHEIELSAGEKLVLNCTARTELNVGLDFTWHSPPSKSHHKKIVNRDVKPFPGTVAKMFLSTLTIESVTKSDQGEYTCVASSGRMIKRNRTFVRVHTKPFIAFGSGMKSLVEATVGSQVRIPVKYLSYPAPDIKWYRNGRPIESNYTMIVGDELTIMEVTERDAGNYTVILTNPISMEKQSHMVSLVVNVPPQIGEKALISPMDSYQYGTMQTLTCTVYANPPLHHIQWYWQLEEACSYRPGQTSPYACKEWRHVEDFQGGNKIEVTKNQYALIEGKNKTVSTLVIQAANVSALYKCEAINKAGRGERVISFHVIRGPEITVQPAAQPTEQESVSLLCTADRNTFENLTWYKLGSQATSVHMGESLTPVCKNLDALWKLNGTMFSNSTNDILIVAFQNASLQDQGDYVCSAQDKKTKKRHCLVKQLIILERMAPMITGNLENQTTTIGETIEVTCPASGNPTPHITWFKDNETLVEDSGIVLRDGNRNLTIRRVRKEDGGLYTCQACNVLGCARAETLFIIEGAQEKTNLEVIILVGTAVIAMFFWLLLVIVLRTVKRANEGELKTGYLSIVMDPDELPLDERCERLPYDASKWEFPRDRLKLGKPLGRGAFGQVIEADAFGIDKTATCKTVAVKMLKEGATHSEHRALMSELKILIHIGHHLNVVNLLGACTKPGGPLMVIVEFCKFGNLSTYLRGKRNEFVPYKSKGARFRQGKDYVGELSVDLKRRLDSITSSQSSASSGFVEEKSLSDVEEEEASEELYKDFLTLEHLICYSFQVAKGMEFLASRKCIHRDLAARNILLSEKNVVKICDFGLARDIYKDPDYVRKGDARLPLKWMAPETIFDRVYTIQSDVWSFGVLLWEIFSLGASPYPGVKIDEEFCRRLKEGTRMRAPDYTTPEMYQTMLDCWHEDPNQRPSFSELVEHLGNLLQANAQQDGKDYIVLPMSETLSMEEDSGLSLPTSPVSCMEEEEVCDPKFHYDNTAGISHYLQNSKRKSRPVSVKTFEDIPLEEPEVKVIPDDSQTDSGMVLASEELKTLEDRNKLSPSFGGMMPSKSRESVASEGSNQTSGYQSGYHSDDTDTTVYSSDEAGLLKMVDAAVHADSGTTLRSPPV
Outline: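 An ELISA using affinity-purified rabbit anti-FLK-1 antiserum on anti-rabbit IgG-coated plates measured VEGF-stimulated FLK-1 kinase activity. NIH3T3 C7#3 cells carrying FLK-1 were serum-starved (0.1% FBS) overnight, then exposed to compound (final 1:200 dilution, 0.5% DMSO) for two hours at 37 °C.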

PDGF-R = PDGF-R (Homo sapiens, UniProt P09619); test: PDGF-R ELISA; type: cell-based
PDGF-R, sequence (P09619 33-1106, species assumed): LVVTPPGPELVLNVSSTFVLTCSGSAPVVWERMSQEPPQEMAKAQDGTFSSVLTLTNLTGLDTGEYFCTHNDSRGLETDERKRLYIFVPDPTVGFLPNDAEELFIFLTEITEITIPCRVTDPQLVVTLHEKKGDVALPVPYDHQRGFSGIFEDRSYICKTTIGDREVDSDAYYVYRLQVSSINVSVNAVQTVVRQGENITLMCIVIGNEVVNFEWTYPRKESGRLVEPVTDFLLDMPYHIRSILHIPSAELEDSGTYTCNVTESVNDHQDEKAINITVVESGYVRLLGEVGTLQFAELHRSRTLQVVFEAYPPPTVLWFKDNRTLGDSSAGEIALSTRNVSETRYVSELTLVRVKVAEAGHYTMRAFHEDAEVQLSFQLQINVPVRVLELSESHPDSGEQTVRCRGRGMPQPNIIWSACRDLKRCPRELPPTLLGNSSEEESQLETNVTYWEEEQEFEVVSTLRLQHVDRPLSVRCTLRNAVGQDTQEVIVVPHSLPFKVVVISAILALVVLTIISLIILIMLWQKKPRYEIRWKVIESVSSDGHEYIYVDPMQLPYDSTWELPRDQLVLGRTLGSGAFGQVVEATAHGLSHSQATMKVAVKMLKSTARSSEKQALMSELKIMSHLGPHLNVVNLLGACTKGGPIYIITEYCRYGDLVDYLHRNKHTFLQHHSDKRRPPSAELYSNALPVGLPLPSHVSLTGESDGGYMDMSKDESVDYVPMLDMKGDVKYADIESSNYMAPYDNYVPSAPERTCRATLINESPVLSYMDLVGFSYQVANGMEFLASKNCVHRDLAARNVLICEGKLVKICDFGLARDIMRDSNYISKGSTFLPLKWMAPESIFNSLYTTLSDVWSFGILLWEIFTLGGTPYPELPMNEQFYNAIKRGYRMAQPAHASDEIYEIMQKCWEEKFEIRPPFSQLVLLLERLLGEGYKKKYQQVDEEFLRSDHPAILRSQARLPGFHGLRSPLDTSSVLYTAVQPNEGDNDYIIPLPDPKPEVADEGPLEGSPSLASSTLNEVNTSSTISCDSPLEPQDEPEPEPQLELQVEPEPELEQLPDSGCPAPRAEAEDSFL
Excerpt: A PDGF-R ELISA is described in International Patent Publication No. WO 96/40116, published December 19, 1996 by Tang et al.

Row | Compound | Met Kinase % Inhibition (MET) [%] | Fik Kinase %Inhibition (FLK-1 receptor) [%] | PDGF Kinase %Inhibition (PDGF-R) [%]
1 | Cc1ccc(C=C2C(=O)Nc3c(Br)cc(Br)cc32)s1 [10717/A07] | 29.2 | -6.4 | –
2 | Cc1c(O)ccc(C=C2C(=O)Nc3c(Br)cc(Br)cc32)c1O [10718/A09] | 67.7 | -18.4 | –
3 | O=C1Nc2c(Br)cc(Br)cc2C1=Cc1ccco1 [10718/A10] | 77.9 | 23.4 | –
4 | O=C1Nc2c(Br)cc(Br)cc2C1=Cc1ccc([N+](=O)[O-])o1 [10718/A11] | 58.9 | 2.7 | –
5 | CCOC(=O)c1c(C)[nH]c(C=C2C(=O)Nc3ccc(I)cc32)c1C [10718/B02] | 52.9 | 7.0 | –
6 | COc1cc(Br)c(O)c(C=C2C(=O)Nc3ccc(I)cc32)c1 [10718/B03] | 77.9 | 1.7 | –
7 | O=C1Nc2ccc(I)cc2C1=Cc1ccc2ccccc2c1O [10718/B04] | 63.9 | 11.8 | –
8 | CCOC(=O)c1cc(C=C2C(=O)Nc3ccc(I)cc32)oc1C [10718/B06] | 78.4 | 16.5 | –
9 | CNS(=O)(=O)c1ccc2c(c1)C(=Cc1cccc(C(F)(F)F)c1F)C(=O)N2 [10728/D07] | 21.8 | 8.1 | 2.3
10 | CNS(=O)(=O)c1ccc2c(c1)C(=Cc1cc(C(F)(F)F)ccc1F)C(=O)N2 [10728/D08] | 34.7 | 13.5 | 2.7
11 | CNS(=O)(=O)c1ccc2c(c1)C(=Cc1c(F)cccc1C(F)(F)F)C(=O)N2 [10728/D09] | 27.6 | 10.5 | -3.9
12 | CNS(=O)(=O)c1ccc2c(c1)C(=Cc1ccccc1OCC(=O)O)C(=O)N2 [10728/D10] | 30.5 | 17.9 | -3.9
13 | CNS(=O)(=O)c1ccc2c(c1)C(=Cc1cc(OC)c3c(c1)OCO3)C(=O)N2 [10728/D11] | 52.5 | 15.9 | -10.2
14 | COc1ccc(OC)c(C=C2C(=O)Nc3ccc(S(=O)(=O)Nc4ccc(C(F)(F)F)cc4)cc32)c1 [10728/E02] | 5.4 | 5.4 | 15.2
15 | COc1cccc(OC)c1C=C1C(=O)Nc2ccc(S(=O)(=O)Nc3ccc(C(F)(F)F)cc3)cc21 [10728/E03] | 11.9 | 13.2 | 12.0
16 | COc1cc(C=C2C(=O)Nc3ccc(S(=O)(=O)Nc4ccc(C(F)(F)F)cc4)cc32)cc(OC)c1 [10728/E04] | 25.6 | 5.5 | 23.2
17 | COc1cc(N(C)C)ccc1C=C1C(=O)Nc2ccc(S(=O)(=O)Nc3ccc(C(F)(F)F)cc3)cc21 [10728/E05] | 53.4 | 17.4 | 5.8
18 | O=C1Nc2ccc(S(=O)(=O)Nc3ccc(C(F)(F)F)cc3)cc2C1=Cc1ccc2c(c1)Cc1ccccc1-2 [10728/E06] | 26.4 | 6.6 | 12.0
19 | O=C1Nc2ccc(S(=O)(=O)Nc3ccc(C(F)(F)F)cc3)cc2C1=Cc1cccc(C(F)(F)F)c1F [10728/E07] | 79.8 | 9.6 | 28.0

Row | Compound | Met Kinase % Inhibition (MET) [%] | Fik Kinase %Inhibition (FLK-1 receptor) [%] | PDGF Kinase %Inhibition (PDGF-R) [%]
20 | O=C1Nc2ccc(S(=O)(=O)Nc3ccc(C(F)(F)F)cc3)cc2C1=Cc1cc(C(F)(F)F)ccc1F [10728/E08] | 46.3 | 15.2 | 29.4
21 | O=C1Nc2ccc(S(=O)(=O)Nc3ccc(C(F)(F)F)cc3)cc2C1=Cc1c(F)cccc1C(F)(F)F [10728/E09] | 40.0 | 9.0 | 22.3
22 | O=C(O)COc1ccccc1C=C1C(=O)Nc2ccc(S(=O)(=O)Nc3ccc(C(F)(F)F)cc3)cc21 [10728/E10] | 57.2 | 24.7 | 13.8
23 | COc1cc(C=C2C(=O)Nc3ccc(S(=O)(=O)Nc4ccc(C(F)(F)F)cc4)cc32)cc2c1OCO2 [10728/E11] | 53.1 | 16.3 | 8.9
24 | COc1ccc(OC)c(C=C2C(=O)Nc3ccc(S(=O)(=O)NN4CCOCC4)cc32)c1 [10728/F02] | 25.6 | 2.9 | 7.2
25 | COc1ccc(OC)c(C=C2C(=O)Nc3ccc(CCCl)cc32)c1 [10728/G02] | 7.1 | 2.3 | 0.9
26 | COc1cccc(OC)c1C=C1C(=O)Nc2ccc(CCCl)cc21 [10728/G03] | 8.8 | 14.3 | -8.4
27 | COc1cc(C=C2C(=O)Nc3ccc(CCCl)cc32)cc(OC)c1 [10728/G04] | 20.9 | 21.8 | 0.5
28 | COc1cc(N(C)C)ccc1C=C1C(=O)Nc2ccc(CCCl)cc21 [10728/G05] | 63.1 | 9.4 | -4.4
29 | O=C1Nc2ccc(CCCl)cc2C1=Cc1ccc2c(c1)Cc1ccccc1-2 [10728/G06] | 25.3 | 13.5 | -13.3
30 | O=C1Nc2ccc(CCCl)cc2C1=Cc1cccc(C(F)(F)F)c1F [10728/G07] | 42.4 | 22.6 | -17.3
31 | O=C1Nc2ccc(CCCl)cc2C1=Cc1cc(C(F)(F)F)ccc1F [10728/G08] | 42.3 | 21.4 | -11.9
32 | O=C1Nc2ccc(CCCl)cc2C1=Cc1c(F)cccc1C(F)(F)F [10728/G09] | 22.2 | 6.8 | 6.3
33 | O=C(O)COc1ccccc1C=C1C(=O)Nc2ccc(CCCl)cc21 [10728/G10] | 27.9 | 10.4 | -0.8
34 | COc1cc(C=C2C(=O)Nc3ccc(CCCl)cc32)cc2c1OCO2 [10728/G11] | 71.4 | 3.2 | -12.8
35 | COc1ccc2ccccc2c1C=C1C(=O)Nc2c(Br)cc(Br)cc21 [10729/A02] | 28.1 | 15.5 | -25.7
36 | COc1ccc(C=C2C(=O)Nc3c(Br)cc(Br)cc32)c2ccccc12 [10729/A03] | 27.5 | 4.7 | 1.9
37 | CSc1ccc(C=C2C(=O)Nc3c(Br)cc(Br)cc32)cc1 [10729/A04] | 45.4 | -4.0 | -16.6
38 | Cc1ccsc1C=C1C(=O)Nc2c(Br)cc(Br)cc21 [10729/A05] | 38.8 | -17.7 | -6.8
